Data taken from article PMC6938345, “Inhibition of complement activation, myeloperoxidase, NET formation and oxidant activity by PIC1 peptide variants” (PLoS ONE, 2019).
Where a SMILES comes first, the peptide text is derived from it. [ ]: non-standard residue; d: D form. Sar = CNCC(=O)O

Experiments:
[1] = Peptide solubility in water
Description: (PA) (Table 1) were synthesized by New England Peptide (Gardner, MA) to >90% purity. Sarcosine variants and PEG were dissolved in water and the pH was adjusted with NaOH. PA was dissolved in DMSO and then brought up to the final concentration with water resulting in 30% DMSO and pH adjusted. Antibody sensitized sheep erythrocytes (EA), purified C1q and factor B-depleted human sera were purchased from Complement Technology (Tyler, TX). Purified myeloperoxidase was purchased from Lee BioSolutions (Maryland Heights, MO) and tetramethylbenzidine (TMB) and PicoGreen were purchased from Thermo Fisher (Waltham MA).
(PA), peptide derivatives were synthesized with sarcosine residues substituted at all 15 positions, included a peptide in which the vicinal cysteines at positions 9 and 10 (C9,C10) were replaced with a single sarcosine residue (Table 1).

[2] = test system: antibody-initiated complement activation (type O sera + type AB red blood cells); assay: ABO incompatibility hemolytic assay (CH50-type, ex vivo); assay type: cell-based, human; conditions: peptides 1.8 mM; for ABO hemolysis: Avg of n = 4, concentration basis of PIC1 not stated
Description: For hemolytic complement assays, human red blood cells (RBCs) from type AB donors were purified, washed and standardized to 1 × 10^9 cells/ml, as previously described. Human sera from type O donors at a 20% final concentration was combined with 1 mM PIC1 or sarcosine variant peptides and the volume was brought up to 0.15 ml with GVBS^++ and 0.5 ml RBCs. For factor B-depleted sera hemolytic assays, a final of 0.005% factor B depleted sera was incubated with 1 mM PIC1 or sarcosine variant peptides with 0.1 ml antibody-sensitized sheep red blood cells (EA) in a final volume of 0.75 ml GVBS^++. The samples were incubated for 1 hour at 37 °C and then 1.0 ml of GVBS^-—was added to the factor B-depleted samples to stop the reaction. The samples were spun at 3,000 rpm for 5 minutes and the supernatant was collected and read at 412 nm. Values are represented as a percent of the positive control, which consists of human O sera and AB red blood cells in GVBS^++ buffer.
In order to evaluate the extent to which the peptide variants inhibit antibody-initiated complement activation, we tested them in two hemolytic assays including an ABO incompatibility ex vivo assay (Fig 1A) and a classical pathway CH50-type assay in factor B-depleted sera (Fig 1B). In the ABO incompatibility hemolytic assay, purified erythrocytes from a ‘type AB+’ donor are incubated with sera from a ‘type O’ subject containing anti-A and anti-B antibodies; peptides were tested at 1.8 mM. […] We then performed a CH50-type hemolytic assay, with antibody-sensitized sheep erythrocytes, isolating the classical pathway by utilizing factor B-depleted sera; peptides were tested at 0.4 mM.
Fig 1 Sarcosine variant inhibition of complement activation in hemolytic assays and C1q binding. A) Inhibition of ABO incompatibility hemolysis in a CH50-type assay. Peptides are at a final concentration of 1.8 mM. […] Data are the means of n = 4 independent experiments + SEM. B) Inhibition of classical complement pathway-mediated hemolysis in factor B-depleted sera in a CH50-type assay. Peptides are at a final concentration of 0.4 mM. Data are the means of n = 4 independent experiments + SEM. C) Binding of increasing concentrations of sarcosine variants to purified C1q in an ELISA-type assay. Data are the means of n = 3 independent experiments ± SEM. D) Half-maximal binding concentrations were calculated for each peptide’s binding curve.

[3] = Total Antioxidant Capacity (TAC) assay; conditions: for TAC assay, antioxidant activity: Avg of n = 3; for antioxidant capacity (in words): TAC assay
Description: The TAC (Total Antioxidant Capacity) Assay (Cell Biolabs, Inc, San Diego, CA) was used to measure the antioxidant capacity of the sarcosine variants based on the reduction of copper (II) to copper (I). The kit protocol was performed as recommended.
Antioxidant activity is measured in copper reducing equivalents (CRE). Peptides were tested over a range of concentrations from 0.03–0.25 mM then compared to the standard. Data are the means of n = 3 independent experiments + SEM.

[4] = test system: purified human neutrophils; assay: NETosis assay, free DNA by PicoGreen; assay type: cell-based; conditions: for PICO green - NETs, free DNA release: Average of n = 3, peptide 2 mM
Description: NETosis assays with immune complexes were performed as previously described. Briefly, normal human serum was stimulated with ovalbumin-antiovalbumin immune complexes in GVBS^++ for 30 minutes at 37 °C. This mixture along with 0.05% H2O2 was then added to purified human neutrophils resuspended in RPMI with or without sarcosine variants (2 mM), allowing NETosis to occur. Quantitation of free DNA released from the neutrophils was performed using PicoGreen. Slides were stained with DAPI (Southern Biotech, Birmingham, AL) and the following antibodies, mouse anti-elastase (Invitrogen, Carlsbad, CA) was used with the secondary goat anti-mouse Alexa Fluor 568 (Novus Biologicals, Centennial, CO) and rabbit anti-histone H3 (Abcam, Cambridge MA) with goat anti-rabbit Alexa Fluor 488 (Novus Biologicals) to visualize formation of NETs which were imaged with fluorescence microscopy with an Olympus BX53 microscope.
In this assay purified human neutrophils are stimulated with normal human serum activated with ovalbumin-antiovalbumin immune complexes and hydrogen peroxide. Free DNA expressed from the neutrophils is then measured in a PicoGreen assay.
Fig 5 Sarcosine variant inhibition of NET formation. Fluorescence microscopy images of NET formation after neutrophil stimulation with immune complexes (IC) and hydrogen peroxide (H2O2) compared with neutrophil only control. Variant I8 inhibition of NET formation is shown in the third row. Histones are probed with anti-histone antibody (αhistone), neutrophil elastase is probed with anti-neutrophil elastase (αNE) and DNA is stained with DAPI. Representative images are shown. […] Purified human neutrophils were stimulated with 2% normal human sera pre-incubated with ovalbumin-antiovalbumin immune complexes, and 0.05% H2O2. Sarcosine peptides and PIC1 were added to the sera to a final concentration of 2 mM. Data are the means of n = 3 independent experiments + SEM.

[5] = molecular target: T1, C1q (Homo sapiens, UniProt P02745+P02746+P02747); assay: C1q binding ELISA-type assay; conditions: C1q as capture substrate
T1 construct: purchased Complement Technology (Tyler, TX)
T1 sequence (P02745 23-245): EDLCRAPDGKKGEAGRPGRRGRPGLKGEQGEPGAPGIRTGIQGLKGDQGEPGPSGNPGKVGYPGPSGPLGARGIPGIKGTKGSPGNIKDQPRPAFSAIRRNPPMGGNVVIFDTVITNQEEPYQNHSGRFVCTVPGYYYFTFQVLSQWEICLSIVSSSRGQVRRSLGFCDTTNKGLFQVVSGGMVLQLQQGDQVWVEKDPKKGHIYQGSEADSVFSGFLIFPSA
T1 sequence (P02746 28-253): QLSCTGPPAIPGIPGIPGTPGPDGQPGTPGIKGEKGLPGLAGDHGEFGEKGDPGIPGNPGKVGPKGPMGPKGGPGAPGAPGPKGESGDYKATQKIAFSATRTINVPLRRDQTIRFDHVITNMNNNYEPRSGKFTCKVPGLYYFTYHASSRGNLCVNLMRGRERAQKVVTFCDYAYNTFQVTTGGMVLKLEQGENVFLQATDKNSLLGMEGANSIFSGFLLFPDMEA
T1 sequence (P02747 29-245): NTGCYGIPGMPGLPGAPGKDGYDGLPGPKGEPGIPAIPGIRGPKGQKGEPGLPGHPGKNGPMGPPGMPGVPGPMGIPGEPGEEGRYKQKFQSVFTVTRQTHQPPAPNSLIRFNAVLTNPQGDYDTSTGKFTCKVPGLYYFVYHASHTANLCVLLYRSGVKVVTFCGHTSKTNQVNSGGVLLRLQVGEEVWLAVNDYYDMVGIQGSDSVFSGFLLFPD
Description: An Immunlon-2 HB ELISA plate was coated with 1 μg/ml C1q or MPO in bicarbonate buffer overnight at 4 °C. The plates were washed with PBST (phosphate buffered saline + 0.1% Tween) and then blocked with 1% gelatin/PBS for 2 hours at room temperature. After washing, the plates were incubated with PA or sarcosine variant peptides starting at 2.5 mg/ml and then serially diluted in 1% gelatin/PBS for 1 hour at room temperature. After washing, the plates were probed with rabbit anti-PA (developed with Cocalico Biologicals, Reamstown, PA) at 1:1000 in 1% gelatin/PBS for 1 hour, room temperature, followed by a goat anti-rabbit HRP (Sigma Aldrich, St Louis, MO) at 1:1,000 in 1% gelatin/PBS for 1 hour at room temperature with a washing step in between. Wells were developed using TMB substrate solution, stopped using 1 N H2SO4, and read at 450 nm in a plate reader.
We then tested peptide variant binding to C1q in an ELISA-type assay in which the C1q is used as the capture substrate. Binding curves for each peptide is shown in Fig 1C, from which half-maximal binding concentrations were calculated (Fig 1D). […] Higher concentrations of DMSO interfere with the detecting reagents resulting in a partial binding curve.

| Structure (SMILES) | solubility in water (in words) [1] | ABO hemolysis [2] | inhibition of ABO incompatible hemolysis (in words) [2] | TAC assay, antioxidant activity [3] | PICO green - NETs, free DNA release [4] | antioxidant capacity (in words) [3] | inhibition of NETosis (in words) ([4]; peptides 2 mM, immune complexes + H2O2, PicoGreen free DNA) | binding to C1q (in words) [5] |
| --- | --- | --- | --- | --- | --- | --- | --- | --- |
| CC[C@H](C)[C@H](N)C(=O)N(C)CC(=O)N[C@@H](CC(C)C)C(=O)N[C@H](C(=O)N[C@@H](CC(C)C)C(=O)N[C@@H](CCC(=O)O)C(=O)N1CCC[C@H]1C(=O)N[C@H](C(=O)N[C@@H](CS)C(=O)N[C@@H](CS)C(=O)N[C@@H](CCC(N)=O)C(=O)N[C@@H](CCC(=O)O)C(=O)N[C@@H](CCCNC(=N)N)C(=O)N[C@@H](C)C(=O)N[C@@H](C)C(=O)O)[C@@H](C)CC)[C@@H](C)CC [A2] | soluble in water | 18.50 % of Control | to a greater extent than did the PA-dPEG24 | 1071.61 copper reducing equivalents (CRE) | 44 | – | – | – |
| CC[C@H](C)[C@H](N)C(=O)N[C@@H](C)C(=O)N[C@@H](CC(C)C)C(=O)N[C@H](C(=O)N[C@@H](CC(C)C)C(=O)N[C@@H](CCC(=O)O)C(=O)N1CCC[C@H]1C(=O)N[C@H](C(=O)N(C)CC(=O)N[C@@H](CCC(N)=O)C(=O)N[C@@H](CCC(=O)O)C(=O)N[C@@H](CCCNC(=N)N)C(=O)N[C@@H](C)C(=O)N[C@@H](C)C(=O)O)[C@@H](C)CC)[C@@H](C)CC [C9,10] (H-IALILEPI[Sar]QERAA-OH) | soluble in water | – | – | – | – | – | – | – |
| CC[C@H](C)[C@H](N)C(=O)N[C@@H](C)C(=O)N[C@@H](CC(C)C)C(=O)N(C)CC(=O)N[C@@H](CC(C)C)C(=O)N[C@@H](CCC(=O)O)C(=O)N1CCC[C@H]1C(=O)N[C@H](C(=O)N[C@@H](CS)C(=O)N[C@@H](CS)C(=O)N[C@@H](CCC(N)=O)C(=O)N[C@@H](CCC(=O)O)C(=O)N[C@@H](CCCNC(=N)N)C(=O)N[C@@H](C)C(=O)N[C@@H](C)C(=O)O)[C@@H](C)CC [I4] | soluble in water | 18.25 % of Control | to a greater extent than did the PA-dPEG24 | 1518.02 copper reducing equivalents (CRE) | 68 | approaching that of PA-dPEG24 | reduced ability to inhibit NETosis | – |
| CC[C@H](C)[C@H](N)C(=O)N[C@@H](C)C(=O)N(C)CC(=O)N[C@H](C(=O)N[C@@H](CC(C)C)C(=O)N[C@@H](CCC(=O)O)C(=O)N1CCC[C@H]1C(=O)N[C@H](C(=O)N[C@@H](CS)C(=O)N[C@@H](CS)C(=O)N[C@@H](CCC(N)=O)C(=O)N[C@@H](CCC(=O)O)C(=O)N[C@@H](CCCNC(=N)N)C(=O)N[C@@H](C)C(=O)N[C@@H](C)C(=O)O)[C@@H](C)CC)[C@@H](C)CC [L3] | soluble in water | 24.75 % of Control | – | 1336.63 copper reducing equivalents (CRE) | 29 | approaching that of PA-dPEG24 | – | – |
| CC[C@H](C)[C@H](N)C(=O)N[C@@H](C)C(=O)N[C@@H](CC(C)C)C(=O)N[C@H](C(=O)N(C)CC(=O)N[C@@H](CCC(=O)O)C(=O)N1CCC[C@H]1C(=O)N[C@H](C(=O)N[C@@H](CS)C(=O)N[C@@H](CS)C(=O)N[C@@H](CCC(N)=O)C(=O)N[C@@H](CCC(=O)O)C(=O)N[C@@H](CCCNC(=N)N)C(=O)N[C@@H](C)C(=O)N[C@@H](C)C(=O)O)[C@@H](C)CC)[C@@H](C)CC [L5] | soluble in water | 33.50 % of Control | – | 882.23 copper reducing equivalents (CRE) | 32 | – | – | – |
| CC[C@H](C)[C@H](N)C(=O)N[C@@H](C)C(=O)N[C@@H](CC(C)C)C(=O)N[C@H](C(=O)N[C@@H](CC(C)C)C(=O)N[C@@H](CCC(=O)O)C(=O)N1CCC[C@H]1C(=O)N[C@H](C(=O)N[C@@H](CS)C(=O)N[C@@H](CS)C(=O)N[C@@H](CCC(N)=O)C(=O)N[C@@H](CCC(=O)O)C(=O)N[C@@H](CCCNC(=N)N)C(=O)N[C@@H](C)C(=O)N[C@@H](C)C(=O)O)[C@@H](C)CC)[C@@H](C)CC [PA] | poor aqueous solubility | – | – | 1289.18 copper reducing equivalents (CRE) | – | – | – | superior binding to C1q |
